In US20190389865A1, “SUBSTITUTED PYRROLO[1,2-a]TRIAZINES AND RELATED COMPOUNDS AND THEIR USE IN THE TREATMENT OF MEDICAL DISORDERS” (Lysosomal Therapeutics Inc., priority 2016, published 2019) one finds activation and solubility data, which are given here for 18 molecules.

In brackets after ≈: the same amount, converted by molar mass. A value given as a limit tells only on which side of the number the result lay.

Data set [1] concerns the target T1, glucocerebrosidase (Gcase) (Homo sapiens, UniProt P04062).
T1 sequence (P04062 40-536): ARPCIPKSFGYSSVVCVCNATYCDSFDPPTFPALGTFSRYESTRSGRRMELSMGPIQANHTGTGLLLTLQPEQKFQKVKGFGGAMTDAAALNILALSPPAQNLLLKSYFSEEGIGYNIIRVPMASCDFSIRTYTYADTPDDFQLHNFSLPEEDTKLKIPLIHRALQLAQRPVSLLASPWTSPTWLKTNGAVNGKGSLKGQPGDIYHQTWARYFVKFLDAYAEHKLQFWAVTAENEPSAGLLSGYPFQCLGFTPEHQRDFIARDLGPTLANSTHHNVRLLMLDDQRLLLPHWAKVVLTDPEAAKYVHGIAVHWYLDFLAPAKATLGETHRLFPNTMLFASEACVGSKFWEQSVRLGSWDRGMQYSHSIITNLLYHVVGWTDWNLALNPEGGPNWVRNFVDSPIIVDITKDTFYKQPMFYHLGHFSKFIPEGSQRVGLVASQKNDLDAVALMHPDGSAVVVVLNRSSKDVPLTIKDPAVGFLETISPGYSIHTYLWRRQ
Put plainly: Glucocerebrosidase (Gcase) activation assay, 4-methylumbelliferyl-beta-D-glucopyranoside substrate, fluorescence. The data set is classed as biochemical. The following applies: 10 nM GCase, 100 nM saposin C, pH 4.7; for activation at 0.1 µM: 0.1 μM test compound, read-out: Percent Gcase Activation, 0.1 μM Test Compound; for activation at 1 µM: 1 μM test compound, read-out: Percent Gcase Activation, 1 μM Test Compound. As to the method: The ability of exemplary compounds to activate glucocerebrosidase (Gcase) was measured.
A 484 μL aliquot of a 1.0 mg/mL solution of phosphatidylserine (PS) (Sigma P7769) in chloroform was evaporated under a stream of nitrogen for 1 hour. The lipid film was dissolved over 4 minutes of vigorous vortexing in 40 mL of 176 mM K2HPO4/50 mM citric acid (pH 4.7) containing 7.5 μL of triton X-100, resulting in a mixed micellar preparation with a composition of 0.32 mM triton and 0.37 mol % PS. 4-Methylumbelliferyl-beta-D-glucopyranoside (ACROS-337025000) was dissolved in the micellar solution to a final concentration of 2 mM for use as the reaction substrate.
Test compounds were diluted to the desired concentrations with dimethylsulfoxide (DMSO) from 10 mM stocks, and 0.41 μL of the DMSO compound mixture was added to 100 μL of micellar solution containing 10 nM GCase and 100 nM saposin C (Enzo ALX-201-262-C050). Pre-incubation was allowed to occur for 30 minutes at room temperature, after which the reaction was initiated by combining 25 μL of substrate solution with 25 μL of compound/GCase/saposin mixture. The reaction proceeded for 15 minutes at room temperature and was stopped by adding 150 μL of 1M glycine, pH 12.5. The endpoint of the reaction was monitored by measuring fluorescence intensity (excitation: 365 nm; emission: 440 nm) on a SpectraMax i3 instrument (Molecular Devices). […]

The nature of data set [2]: Compound solubility in water. The data set is classed as physicochemical.

In general, solubility refers to the concentration that dissolves in the medium under given conditions. A high value points to a readily soluble substance. On to `COc1cc(-c2nc(C)n3ccc(C(=O)NC(C)C(F)(F)F)c3n2)ccc1F` (stereo not drawn) [2-(4-Fluoro-3-methoxyphenyl)-4-methyl-N-(1,1,1-trifluoropropan-2-yl)pyrrolo[1,2-a][1,3,5]triazine-8-carboxamide], for which, in data set [1], the activation at 0.1 µM was over 20% and the activation at 1 µM is over 20%. Also, in data set [2], the solubility stood at 1 µg/mL (≈ 2.52 µM).
Regarding `Cc1nc(-c2cccc(C(N)=O)c2)nc2c(C(=O)NC(C3CC3)C(F)(F)F)ccn12` (stereo not drawn) [2-(3-Carbamoylphenyl)-N-(1-cyclopropyl-2,2,2-trifluoroethyl)-4-methylpyrrolo[1,2-a][1,3,5]triazine-8-carboxamide], in data set [1], the activation at 0.1 µM is over 20% and the activation at 1 µM was over 20%. Besides, in data set [2], the concentration in solution (solubility) was 1.9 µg/mL (≈ 4.55 µM).
As to `Cc1nc(C)c2cccc(C(=O)NC3CCCc4ccccc43)c2n1` (stereo not drawn) [2,4-Dimethyl-N-(1,2,3,4-tetrahydronaphthalen-1-yl)quinazoline-8-carboxamide], in data set [1], the activation at 0.1 µM is under 5% and the activation at 1 µM is 5 to 20%. In addition, the solubility in data set [2] stood at 5 µg/mL (≈ 15.1 µM).
Taken in the same sequence, the figures for `Cc1nc(C)n2ccc(C(=O)NC(C3CC3)C(F)(F)F)c2n1` (stereo not drawn) [N-(1-Cyclopropyl-2,2,2-trifluoroethyl)-2,4-dimethylpyrrolo[1,2-a][1,3,5]triazine-8-carboxamide] were 5 to 20%, over 20% and 28.2 µg/mL (≈ 90.3 µM).
As to `Cc1nc(-c2ccc(F)cc2)nc2c(C(=O)NC(C3CC3)C(F)(F)F)ccn12` (stereo not drawn) [N-(1-Cyclopropyl-2,2,2-trifluoroethyl)-2-(4-fluorophenyl)-4-methylpyrrolo[1,2-a][1,3,5]triazine-8-carboxamide], in data set [1], the activation at 0.1 µM is over 20% and the activation at 1 µM was over 20%. The molecule also had a solubility in data set [2] of 0.1 µg/mL (≈ 0.255 µM).
As to `Cc1nc(C)n2ccc(C(=O)NC(C)(C)C3CC3)c2n1` [N-(2-Cyclopropylpropan-2-yl)-2,4-dimethylpyrrolo[2-a][1,3,5]triazine-8-carboxamide], in data set [1], the activation at 0.1 µM is under 5% and the activation at 1 µM was in the range of 5 to 20%. In data set [2], the solubility was 38.4 µg/mL (≈ 141 µM).
On to `Cc1nc(C)n2ccc(C(=O)NC3(C)CCCc4ccccc43)c2n1` (stereo not drawn) [2,4-Dimethyl-N-(1-methyl-1,2,3,4-tetrahydronaphthalen-1-yl)pyrrolo[1,2-a][1,3,5]triazine-8-carboxamide], for which, in data set [1], the activation at 0.1 µM fell in the range of 5 to 20% and the activation at 1 µM is over 20%. For the same molecule, in data set [2], the solubility is 5.1 µg/mL (≈ 15.3 µM).
`CCCCCO[C@H]1CC[C@H](NC(=O)c2ccn3c(C)nc(C)nc23)CC1` [2,4-Dimethyl-N-((1S,4S)-4-(pentyloxy)cyclohexyl) pyrrolo[1,2-a][1,3,5]triazine-8-carboxamide]: in data set [1], the activation at 0.1 µM was in the range of 5 to 20% and the activation at 1 µM was over 20%. Moreover, the solubility in data set [2] was found to be 12.5 µg/mL (≈ 35 µM).
In the same order, the values of `C#Cc1ccc(NC(=O)c2ccn3c(C)nc(C)nc23)cc1` [N-(4-Ethynylphenyl)-2,4-dimethylpyrrolo[1,2-a][1,3,5]triazine-8-carboxamide] are under 5%, over 20% and 1.8 µg/mL (≈ 6.2 µM).
As for `CCC(NC(=O)c1ccn2c(C)nc(C)nc12)c1ccccc1` (stereo not drawn) [2,4-Dimethyl-N-(1-phenylpropyl)pyrrolo[1,2-a][1,3,5]triazine-8-carboxamide], in data set [1], the activation at 0.1 µM was in the range of 5 to 20% and the activation at 1 µM was over 20%. The solubility in data set [2] amounted to 17.4 µg/mL (≈ 56.4 µM).
In the same order, the values of `Cc1nc(-c2ccc(F)cc2)nc2c(C(=O)NC(C)(C)C3CC3)ccn12` [N-(2-Cyclopropylpropan-2-yl)-2-(4-fluorophenyl)-4-methylpyrrolo[1,2-a][1,3,5]triazine-8-carboxamide] are under 5%, over 20% and 0.5 µg/mL (≈ 1.42 µM).
Turning to `CCCCCO[C@H]1CC[C@H](NC(=O)c2cccc3c(C)nc(C)nc23)CC1` [2,4-Dimethyl-N-((1R,4R)-4-(pentyloxy)cyclohexyl)quinazoline-8-carboxamide], in data set [1], the activation at 0.1 µM was under 5% and the activation at 1 µM was 5 to 20%. In addition, the solubility in data set [2] worked out at 7.6 µg/mL (≈ 20.6 µM).
`Cc1nc(C)n2ccc(C(=O)Nc3ccc4c(c3)CCC4)c2n1` [N-(2,3-Dihydro-1H-inden-5-yl)-2,4-dimethylpyrrolo[1,2-a][1,3,5]triazine-8-carboxamide]: in data set [1], the activation at 0.1 µM was under 5% and the activation at 1 µM is over 20%. Besides, the solubility in data set [2] was 1.2 µg/mL (≈ 3.92 µM).
`Cc1nc(-c2cccc(C#N)c2)nc2c(C(=O)NC(C3CC3)C(F)(F)F)ccn12` (stereo not drawn) [2-(3-Cyanophenyl)-N-(1-cyclopropyl-2,2,2-trifluoroethyl)-4-methylpyrrolo[1,2-a][1,3,5]triazine-8-carboxamide]: in data set [1], the activation at 0.1 µM was over 20% and the activation at 1 µM is over 20%. This molecule also had a solubility in data set [2] of 0.6 µg/mL (≈ 1.5 µM).
Turning to `CCC(NC(=O)c1cccc2c(C)nc(C)nc12)c1ccccc1` (stereo not drawn) [2,4-Dimethyl-N-(1-phenylpropyl)quinazoline-8-carboxamide], in data set [1], the activation at 0.1 µM is under 5% and the activation at 1 µM lay in the range of 5 to 20%. The molecule also had a solubility in data set [2] of 8.7 µg/mL (≈ 27.2 µM).
Taken in the same sequence, the figures for `Cc1nc(-c2cccc(F)c2)nc2c(C(=O)NC(C3CC3)C(F)(F)F)ccn12` (stereo not drawn) [N-(1-Cyclopropyl-2,2,2-trifluoroethyl)-2-(3-fluorophenyl)-4-methylpyrrolo[1,2-a][1,3,5]triazine-8-carboxamide] were over 20%, over 20% and 0.2 µg/mL (≈ 0.51 µM).
Taken in the same sequence, the figures for `Cc1nc(C)c2cccc(C(=O)Nc3ccc4c(c3)CCC4)c2n1` [N-(2,3-Dihydro-1H-inden-5-yl)-2,4-dimethylquinazoline-8-carboxamide] were under 5%, 5 to 20% and 0.5 µg/mL (≈ 1.58 µM).
Taken in the same sequence, the figures for `C#Cc1ccc(NC(=O)c2cccc3c(C)nc(C)nc23)cc1` [N-(4-Ethynylphenyl)-2,4-dimethylquinazoline-8-carboxamide] were under 5%, under 5% and 0.7 µg/mL (≈ 2.32 µM).
